Test results taken from PubChem BioAssay (NCI).
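Each compound was tested at five concentrations against cells in 96-well plates for 48 hours. GI50 marks 50% less growth. TGI: concentration producing complete growth inhibition.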 Where a SMILES comes first, the peptide text is derived from it.

Experiments:
Test in all cases: NCI-60 cell line screen, 48 h
CCRF-CEM leukemia = system: CCRF-CEM leukemia
DMS 273 small cell lung = system: DMS 273 small cell lung
HT29 colon = system: HT29 colon
KM12 colon = system: KM12 colon
KM20L2 colon = system: KM20L2 colon
LXFL 529 NSCLC = system: LXFL 529 NSCLC
MALME-3M melanoma = system: MALME-3M melanoma
NCI-H23 lung = system: NCI-H23 lung
SK-MEL-2 melanoma = system: SK-MEL-2 melanoma
SNB-78 CNS = system: SNB-78 CNS
T-47D breast = system: T-47D breast

Row | Structure (SMILES) | TGI (CCRF-CEM leukemia) | TGI (DMS 273 small cell lung) | TGI (HT29 colon) | TGI (KM12 colon) | TGI (KM20L2 colon) | TGI (LXFL 529 NSCLC) | TGI (MALME-3M melanoma) | TGI (NCI-H23 lung) | TGI (SK-MEL-2 melanoma) | TGI (SNB-78 CNS) | TGI (T-47D breast) | GI50 (CCRF-CEM leukemia) | GI50 (HT29 colon) | GI50 (KM12 colon) | GI50 (NCI-H23 lung) | GI50 (SK-MEL-2 melanoma) | GI50 (T-47D breast) | GI50 (KM20L2 colon) | GI50 (LXFL 529 NSCLC) | GI50 (MALME-3M melanoma)
1 | O=C(CC1(O)C(=O)Nc2ccccc21)c1ccc(O)cc1 (configuration not stated) | > 100 µM | > 100 µM | > 100 µM | > 100 µM | > 100 µM | > 100 µM | > 100 µM | > 100 µM | > 100 µM | > 100 µM |  |  |  |  |  |  |  |  |  | 
2 | C/C(=N\N=C(\[Se])N(C)C)c1ccccn1 | 2.1 µM | 5.29 µM | 14.2 µM | 17.9 µM | 12.6 µM | 13.8 µM | 9.35 µM | 11 µM | 12.9 µM | 15.9 µM | 32.3 µM |  |  |  |  |  |  |  |  | 
3 | CN[C@@H](C)[C@H](N)c1ccccc1 | > 100 µM | > 100 µM | > 100 µM | > 100 µM |  | > 100 µM |  | > 100 µM |  | > 100 µM |  |  |  |  |  |  |  |  |  | 
4 | CCC(C)C1NC(=O)C2CCCN2C(=O)CNC(=O)C(C)NC(=O)C(Cc2ccccc2)NC(=O)C(C(C)C)NC1=O (configuration not stated) (cyclo(GPIVFA); configuration not given here) |  |  | > 100 µM | > 100 µM | > 100 µM | > 100 µM | > 100 µM | > 100 µM |  |  |  |  |  |  |  |  |  |  |  | 
5 | COC(=O)C1C=NNC1C(=O)OC (configuration not stated) | > 100 µM | > 100 µM | > 100 µM | > 100 µM | > 100 µM | > 100 µM | > 100 µM | > 100 µM | > 100 µM | > 100 µM |  |  |  |  |  |  |  |  |  | 
6 | C=C1C2CC(OC(C)=O)C3(C)C(c4ccoc4)OC(=O)[C@@H](O)[C@]13OC1C[C@H](OC(C)=O)C(C)(C)[C@H](CC(=O)OC)[C@]12C (some centres not stated) | > 100 µM | > 100 µM | > 100 µM | > 100 µM | > 100 µM | > 100 µM |  | > 100 µM | > 100 µM | > 100 µM |  |  |  |  |  |  |  |  |  | 
7 | COc1ccc(-c2cc(-c3cc(Cl)cc(Br)c3O)[nH]c(=O)n2)cc1 | 70.7 µM | 31.1 µM | 39.4 µM | 41.3 µM | 38.6 µM | 30 µM | 42.3 µM | 29.4 µM |  | 64.2 µM |  |  |  |  |  |  |  |  |  | 
8 | O=S(=O)([O-])[O-].[Cl-].[NH2-].[NH2-].[NH2-].[NH2-].[Ru+3].c1ccncc1 | > 100 µM | > 100 µM | > 100 µM | > 100 µM | > 100 µM | > 100 µM | > 100 µM | > 100 µM | > 100 µM |  |  |  |  |  |  |  |  |  |  | 
9 | O=S1(=O)CCCS(=O)(=O)C(c2ccccc2)=C1c1ccccc1 | > 100 µM |  | > 100 µM | 79 µM | 72.1 µM | > 100 µM | > 100 µM | > 100 µM | > 100 µM | > 100 µM |  |  |  |  |  |  |  |  |  | 
10 | COc1ccc(/C=c2/sc3n(c2=O)NC2(CCC(C)CC2)NN=3)cc1 (configuration not stated) | > 100 µM | > 100 µM | > 100 µM | > 100 µM | > 100 µM | > 100 µM | > 100 µM | > 100 µM | > 100 µM | > 100 µM |  |  |  |  |  |  |  |  |  | 
11 | CC1=C(C(=O)Nc2ccc([N+](=O)[O-])cc2)C(c2ccc3c(c2)OCO3)C(C(=O)Nc2ccc([N+](=O)[O-])cc2)=C(C)N1 |  | 97.4 µM | > 100 µM | 24.9 µM | > 100 µM | > 100 µM | > 100 µM | 57.9 µM | 35 µM | > 100 µM |  |  |  |  |  |  |  |  |  | 
12 | COc1ccc(/C(Cl)=C(\c2ccc(OCCN(C)C)cc2)c2ccc(OC(=O)C(C)(C)C)cc2)cc1 | 24.9 µM | 17.5 µM | 11.5 µM | 26.4 µM | 12.4 µM | 27 µM | 30 µM | 29.1 µM | 29.4 µM | 33.2 µM |  |  |  |  |  |  |  |  |  | 
13 | COC(=O)N/N=C(/CCC(=O)Nc1ccc(C)c(C)c1)CC(=O)C(C)(C)C | > 100 µM | > 100 µM | > 100 µM | > 100 µM | > 100 µM | > 100 µM | > 100 µM | > 100 µM | > 100 µM |  |  |  |  |  |  |  |  |  |  | 
14 | O=[N+]([O-])c1cc(Cl)ccc1OCc1ccccc1 | > 100 µM | > 100 µM | 84.1 µM | > 100 µM |  | > 100 µM | > 100 µM | 96.5 µM | > 100 µM | > 100 µM |  |  |  |  |  |  |  |  |  | 
15 | CSc1nc(NC2OC(COC(C)=O)C(OC(C)=O)C(OC(C)=O)C2OC(C)=O)c(-c2csc(N)n2)c(=O)n1C (configuration not stated) | > 100 µM |  | > 100 µM | > 100 µM | > 100 µM | > 100 µM | > 100 µM | > 100 µM | > 100 µM | 76.8 µM |  |  |  |  |  |  |  |  |  | 
16 | CCOC(=N)CC(=O)Nc1cccc(Cl)c1 | > 100 µM | > 100 µM | > 100 µM | > 100 µM | > 100 µM | > 100 µM | > 100 µM | > 100 µM | > 100 µM | > 100 µM |  |  |  |  |  |  |  |  |  | 
17 | COc1ccc2c(c1)[n+]([O-])c(-c1ccc(C)cc1)c(N)[n+]2[O-] |  | > 100 µM | > 100 µM | > 100 µM | > 100 µM | > 100 µM | > 100 µM | 48.3 µM | > 100 µM | > 100 µM |  |  |  |  |  |  |  |  |  | 
18 | COc1ccc2c(c1)CC1c3c(ccc(OC)c3O)CC2N1C (configuration not stated) | 80.6 µM | 45.2 µM | 57.5 µM | > 89.8 µM | > 70 µM | 39 µM | 29.4 µM | > 100 µM | 37.1 µM | 97 µM |  |  |  |  |  |  |  |  |  | 
19 | Cc1ccc(C(SCC(N)C(=O)O)(c2ccccc2)c2ccccc2)cc1 (configuration not stated) | > 100 µM |  | > 100 µM | 5.98 µM |  |  | > 100 µM | > 96 µM | 98 µM |  | > 77.7 µM | 0.0832 µM | 0.365 µM | 0.0983 µM | 0.236 µM | 2.75 µM | 0.123 µM |  |  | 
20 | Oc1cccc(/C=N/Nc2nnc(N/N=C/c3cccc(O)c3)c3ccccc23)c1 | 88.3 µM |  | > 100 µM | > 100 µM |  |  | 57.3 µM | 48.6 µM | 83.6 µM |  | 61.8 µM |  |  |  |  |  |  |  |  | 
21 | CC(=O)[CH-]C(=O)c1ccccc1.CC(=O)[CH-]C(=O)c1ccccc1.Cl.[O-]c1ccccn1.[O-]c1ccccn1.[Ti+4] |  |  | > 100 µM | > 100 µM | > 100 µM | > 100 µM | > 100 µM |  | > 100 µM |  |  |  | > 100 µM | > 100 µM |  | > 100 µM |  | > 100 µM | > 100 µM | > 100 µM
